Assays:
Type in all cases: binding
influenza A NWS/G70C = tested on: influenza A NWS/G70C
[1] = tested on: NWS/G70C influenza A virus
[2] = tested on: NWS/G70C influenza A virus; remark: listed apart in the source

5-acetamido-7-{6′-[6″-(6″′-biotinylaminocaproyl) -tri-amingcaroyl]-aminohexyl}-carbamoyloxy-4-guanidino -2,3,4,5-tetradeoxy-D-glycero-D-gaacto-non-2-enopyranosonic acid [Compound No. 26]
compound concentration giving the best results (influenza A NWS/G70C): 0.1 µM | virus amount readily detected (influenza A NWS/G70C): 2.5×10^5 pfu/well

CC(=O)N[C@H]1[C@H]([C@H](OC(=O)NCCCCCCNC(=O)NCCCCCCN)[C@H](O)CO)OC(C(=O)O)=C[C@@H]1NC(=N)N [Compound No. 8, 5-acetamido-7-[6′-(6″-aminohexylureido)-hexyl]-carbamoyloxy-4-guanidino-2,3,4,5-tetradeoxy-D-glycero-D-galacto-non-2-enopyranosonic acid]
signal in direct detection [1]: no signal at any concentration of virus

CC(=O)N[C@H]1[C@H]([C@H](OC(=O)NCCCCCCNC(=O)CNC(=O)CNC(=O)CNC(=O)CCCC[C@@H]2SC[C@@H]3NC(=O)N[C@@H]32)[C@H](O)CO)OC(C(=O)O)=C[C@@H]1NC(=N)N [Compound No. 21, 5-acetamido-7-(6′-biotinylamino-tricrlycinamido-hexy) -carbamoyloxy-4-guanidino-2,3,4,5-tetradeoxy-D-glycerQ-D-galacto-non-2-enopyranosonic acid]
minimum virus detectable [1]: about 10^5 virus particles per well | compound concentration giving the best result [2]: 0.01 µM | virus detection limit of captured complex [2]: ≤ 0.625×10^5 pfu

Source: patent publication US20020055094A1 (priority 1996, published 2002)
